Test results as given in patent US11414385B2, “Compounds and methods for treating, detecting, and identifying compounds to treat apicomplexan parasitic diseases” (The University of Chicago, priority 2015, dated 2022).

How the values were obtained:
[1] = system: T. gondii tachyzoites (RH-YFP strain); assay: In vitro challenge assay for Toxoplasma tachyzoites (RH-YFP in HFF, fluorescence); assay type: cell-based, Toxoplasma gondii
Experimental: Human foreskin fibroblasts (HFF) were cultured on a flat, clear-bottomed, black 96-well plate to 90% to 100% confluence. IMDM (1×, [+] glutamine, [+] 25 mM HEPES, [+] Phenol red, 10% FBS [gibco, Denmark]) was removed from each well and replaced with IMDM-C (1×, [+] glutamine, [+] 25 mM HEPES, [−] Phenol red, 10% FBS)[Gibco, Denmark]). Type I RH parasites expressing Yellow Fluorescent Protein (RH-YFP) were lysed from host cells by double passage through a 27-gauge needle. Parasites were counted and diluted to 32,000/mL in IMDM-C. Fibroblast cultures were infected with 3200 tachyzoites of the Type I RH-YFP strain and returned to incubator at 37° C. for 1-2 hours to allow for infection. Diluted solutions of the compounds were made using IMDM-C, and 20 μl were added to each designated well, with triplicates for each condition. Controls included pyrimethamine/sulfadiazine (current standard of treatment), DMSO only, fibroblast only, and an untreated YFP gradient with 2 fold dilutions of the parasite. Cells were incubated at 37° C. for 72 hours. The plates were read using a fluorimeter (Synergy H4 Hybrid Reader, BioTek) To ascertain the amount of yellow fluorescent protein, in relative fluorescence units (RFU), as a measure of parasite burden after treatment. Compounds were not considered effective or pursued for further analysis if there were no signs of inhibition at 1 μM. Data was collected using Gen5 software and analyzed with Excel.
Protocol adapted from Fomovska, et. al. (18,19). Human foreskin fibroblasts (HFF) were cultured on a flat, clear-bottomed, black 96-well plate to 90% to 100% confluence. IMDM (1×, [+] glutamine, [+] 25 mM HEPES, [+] Phenol red, 10% FBS [gibco, Denmark]) was removed from each well and replaced with IMDM-C (1×, [+] glutamine, [+] 25 mM HEPES, [−] Phenol red, 10% FBS)[gibco, Denmark]). Type I RH parasites expressing Yellow Fluorescent Protein (RH-YFP) were lysed from host cells by double passage through a 27-gauge needle. Parasites were counted and diluted to 32,000/mL in IMDM-C. Fibroblast cultures were infected with 3200 tachyzoites of the Type I RH strain expressing Yellow Fluorescent Protein (RH-YFP) and returned to incubator at 37° C. for 1-2 hours to allow for infection (15). Various concentrations of the compounds were made using IMDM-C, and 20 μl were added to each designated well, with triplicates for each condition. Controls included pyrimethamine/sulfadiazine (current standard of treatment), 0.1% DMSO only, fibroblast only, and an untreated YFP gradient with 2 fold dilutions of the parasite. Cells were incubated at 37° C. for 72 hours. Plates were read using a fluorimeter (Synergy H4 Hybrid Reader, BioTek) to ascertain the amount of yellow fluorescent protein, in relative fluorescence units (RFU), as a measure of parasite burden after treatment. Data was collected using Gen5 software. IC50 was calculated by graphical analysis in Excel.
An initial screening assay of 10 μM, 1 μM, 100 nM, and 10 nM was performed. Compounds were not considered effective or pursued for further analysis if there were no signs of inhibition of tachyzoites at 1 μM. If compounds did appear to be effective at 1 μM, another experiment was conducted to assess effect at 1 μM, 500 nM, 250 nM, 125 nM, 62.5 nM, and 31.25 nM.
Protocol adapted from Fomovska, et. al. (Fomovska A, Huang Q, El Bissati K, Mui E J, Witola W H, Cheng G, et al. Novel N-Benzoyl-2-Hydroxybenzamide Disrupts Unique Parasite Secretory Pathway. Antimicrob Agents Chemother [Internet]. 2012 May [cited 2015 Jul. 8]; 56(5):2666-82; Fomovska A, Wood R D, Mui E, Dubey J P, Ferreira L R, Hickman M R, et al. Salicylanilide inhibitors of Toxoplasma gondii. J Med Chem. 2012 Oct. 11; 55(19):8375-91.). Human foreskin fibroblasts (HFF) were cultured on a flat, clear-bottomed, black 96-well plate to 90% to 100% confluence. […]

[2] = molecular target: T1, Plasmodium falciparum bc1 complex cytochrome c reductase (Pfbc1) (Plasmodium falciparum, UniProt Q02768); assay: Pfbc1 native assay (cytochrome c reduction by parasite extract); assay type: biochemical; details: compound 1 μM; mean ± s.e.m. of 4 independent experiments
T1 construct: Parasite extract was then prepared by disruption with a sonicating probe; endogenous in cells; host or cells: P. falciparum 3D7 blood-stage parasites, saponin-freed and sonicated (crude parasite extract)
T1 sequence (Q02768 1-376): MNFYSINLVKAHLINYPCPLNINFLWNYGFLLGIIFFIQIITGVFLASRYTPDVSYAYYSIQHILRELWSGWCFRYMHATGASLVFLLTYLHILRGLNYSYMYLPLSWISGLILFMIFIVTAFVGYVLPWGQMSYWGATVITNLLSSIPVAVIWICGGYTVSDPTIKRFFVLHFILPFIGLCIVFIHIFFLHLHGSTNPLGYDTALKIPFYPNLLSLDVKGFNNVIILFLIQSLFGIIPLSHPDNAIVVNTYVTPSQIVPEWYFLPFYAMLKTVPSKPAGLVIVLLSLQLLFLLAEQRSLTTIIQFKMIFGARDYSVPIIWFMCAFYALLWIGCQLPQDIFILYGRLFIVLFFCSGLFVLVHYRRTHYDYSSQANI
Experimental: Plasmodium falciparum: 3D7 strain was obtained from the Liverpool School of Tropical Medicine. Protease cocktail inhibitor was obtained from Roche. Bradford protein assay dye reagent was obtained from Bio-Rad. All other reagents were obtained from Sigma-Aldrich. Decylubiquinol was produced as per Fisher et al. (Fisher et al. 2004)^21. In brief, 25 mg of decylubiquinone were dissolved in 400 μl of nitrogen-saturated hexane. An equal volume of aqueous 1 M sodium dithionite was added, and the mixture vortexed until colorless. The organic phase containing the decylubiquinol was collected, the solvent was evaporated under N2 and the decylubiquinol finally dissolved in 100 μl of 96% ethanol (acidified with 10 mM HCl). Concentrations of decylubiquinol was determined spectrophotometrically on a Cary 300 Bio UV/visible spectrophotometer (Varian, UK) from absolute spectra, using ε288-320=8.1 mM-1·cm^−1. Decylubiquinol was stored at −80° C. and used within two weeks.
The protocol for the preparation of parasite extract was adapted from Fisher et al. (Fisher et al. 2009)^22. Free parasites were prepared from infected erythrocytes pooled from five T75 flasks, by adding 5 volumes of 0.15% (w/v) saponin in phosphate-buffered saline (137 mM NaCl, 2.7 mM KCl, 1.76 mM K2HPO4, 8.0 mM Na2HPO4, 5.5 mM D-glucose, pH 7.4) for 5 min, followed by three washes by centrifugation in RPMI containing HEPES (25 mM), and a final resuspension in potassium phosphate buffer (50 mM K2HPO4, 50 mM KH2PO4, 2 mM EDTA, pH7.4) containing a protease inhibitor cocktail (Complete Mini; Roche). Parasite extract was then prepared by disruption with a sonicating probe for 5 s, followed by a 1 min rest period on ice to prevent the sample overheating. […] The protein concentration of the parasite extract was determined by Bradford protein assay (Bio-Rad).
Plasmodium falciparum bc1 complex cytochrome c reductase (Pfbc1) activity was measured by monitoring cytochrome c reduction at 550 versus 542 nm using a Cary 300 Bio UV-Visible Spectrophotometer (Varian, UK), using a protocol adapted from Fisher et al. (Fisher et al. 2009)^21-23. […]

[3] = system: T. gondii bradyzoites (EGS strain); assay: EGS strain bradyzoite assay (cysts in HFF, dolichos/BAG1 staining); assay type: cell-based, Toxoplasma gondii; details: 5 and 10 μM, in HFF
Experimental: (§1) HFF cells were grown in IMDM (1×, [+] glutamine, [+] 25 mM HEPES, [+] Phenol red, 10% FBS, [Gibco, Denmark]) on removable, sterile glass disks in the bottom of a clear, flat-bottomed 24-well plate. Cultures were infected with 3×10^4 parasites (EGS strain) per well, in 0.5 mL media and plate was returned to incubator at 37° C. overnight. The following day, the media was removed and clear IMDM and compounds were added to making various concentrations of the drug, to a total volume of 0.5 mL. Two wells were filled with media only, as a control. Plates were returned to the 37° C. incubator for 72 hours.
Efficacy was determined following fixation. Staining was used to determine the numbers of cysts in cultures without and with treatment with the test compounds. Cells were fixed using 4% paraformaldehyde and stained with Fluorescein-labeled Dolichos Biflorus Agglutinin, DAPI, and anti-BAG1, and anti-SAG1. Disks were removed and mounted onto glass slides and visualized using microscopy (Nikon Tl7). Slides were also scanned using a CRi Pannoramic Scan Whole Slide Scanner and viewed using Panoramic Viewer Software.
as §1, with “[gibco,” for “[Gibco,”, “2” for “Two”, “72 hours, and checked once every 24” for “72”, “hours. If tachyzoites were visible in the control before 72 hours, the cells were fixed and stained.” for “hours.”
Cells were fixed using 4% paraformaldehyde and stained with Fluorescein-labeled Dolichos Biflorus Agglutinin, DAPI, and BAG1. Disks were removed and mounted onto glass slides and visualized using microscopy (Nikon Tl7). Slides were scanned using a CRi Pannoramic Scan Whole Slide Scanner and viewed using Panoramic Viewer Software. Effects of the compounds were quantified by counting cysts in the controls and treated cells. Cysts and persisting organisms were counted in a representative field of view and then multiplied by a factor determined by the total area of the disk in order to estimate the number of cysts and organisms in each condition.
HFF cells were grown in IMDM (1×, [+] glutamine, [+] 25 mM HEPES, [+] Phenol red, 10% FBS, [gibco, Denmark]) on removable, sterile glass disks in the bottom of a clear, flat-bottomed 24-well plate. Cultures were infected with 3×10^4 parasites (EGS strain) per well, in 0.5 mL media and plate was returned to incubator at 37° C. overnight. The following day, the media was removed and clear IMDM and compounds were added to making various concentrations of the drug, to a total volume of 0.5 mL. 2 wells were filled with media only, as a control. Plates were returned to the 37° C. incubator for 72 hours, and checked once every 24 hours. If tachyzoites were visible in the control before 72 hours, the cells were fixed and stained. Cells were fixed using 4% paraformaldehyde and stained with Fluorescein-labeled Dolichos Biflorus Agglutinin, DAPI, and BAG1. Disks were removed and mounted onto glass slides and visualized using microscopy (Nikon Tl7). Slides were scanned using a CRi Pannoramic Scan Whole Slide Scanner and viewed using Panoramic Viewer Software. Effects of the compounds were quantified by counting cysts in the controls and treated cells. Cysts and persisting organisms were counted in a representative field of view and then multiplied by a factor determined by the total area of the disk in order to estimate the number of cysts and organisms in each condition. Data was collected using Gen5 software. IC50 was calculated by graphical analysis in Excel.

| Compound | IC50 ([1]; Toxoplasma gondii, RH-YFP, read-out: Tachy IC50) | Inhibition of cytochrome c reduction (% atovaquone response) [2] | effect on tachyzoite replication ([1]; 5 and 10 μM, vs off target control) | effect on size and number of EGS cysts [3] |
| --- | --- | --- | --- | --- |
| O=c1c2c([nH]c(CO)c1-c1ccc(Oc3ccc(OC(F)(F)F)cc3)cc1)CCCC2 [JAG099, 3(4-(4-Trifluoromethoxyphenoxy)phenyl)-2-(methylhydroxy)-5,6,7,8-tetrahydroquinolin-4(1H)-one] | 320 nM | 81.3 ± 6.0 % atovaquone response | – | – |
| Vivoporter-PMOs: "Vivo-PMO (Vivo porter linked to morpholinos) to knock down cytochrome b"; sequence 5′ AGTGTTCTCGAAACCATGCTAACAC 3′ (SEQ ID NO: 5) (all phosphorodiamidate morpholino (PMO); Vivo-Porter delivery moiety attached to morpholino, further chemistry not fully specified; listed as Homo sapiens) [reference compound] | – | – | modest effect | small effect |
